Measured values: US20220160664A1, “TAZ ACTIVATORS AND WNT AGONISTS FOR TREATING EAR DISORDERS” (Frequency Therapeutics, Inc., priority 2019, published 2022)
pIC50: −log10 of the molar value.

Assays:
[1] = system: Lgr5 GFP(+) cochlear progenitor cells; assay: Lgr5+ Assay / Stem Cell Proliferation Assay: proliferation and enrichment of Lgr5 GFP(+) cochlear progenitor cells; format: cell-based
Source text: FIG. 1A is a graph depicting that the TAZ activator IBS008738 enhances Lgr5 GFP(+) progenitor cell proliferation when combined with CHIR in a background of growth factors. The y-axis depicts Lgr5 GFP(+) cell count and the x-axis depicts control conditions (background growth factors plus CHIR (EFI-C) or CHIR and VPA (EFI-CV)) versus CHIR+IBS008738 (EFI-C-IBS).
The y-axis depicts Lgr5 GFP(+) cell area and the x-axis depicts concentration of FHZ-000706.
FIG. 4A is a graph depicting that the TAZ activator FHZ-000706 enhances Lgr5 GFP(+) progenitor cell proliferation when combined with CHIR in a background of growth factors compared to CHIR alone.
The TAZ activator and the Wnt agonist (optionally in combination with an epigenetic agent) is capable of (i) forming a proliferation assay final cell population from a proliferation assay initial cell population over a proliferation assay time period in a stem cell proliferation assay, and/or (ii) forming a differentiation assay final cell population from a differentiation assay initial cell population over a differentiation assay time period in a Stem Cell differentiation assay wherein: (a) the proliferation assay initial cell population has (i) a Proliferation assay initial number of total cells, (ii) a proliferation assay initial number of Lgr5+ cells, (iii) a proliferation assay initial number of hair cells, (iv) a proliferation assay initial Lgr5+ cell fraction that equals the ratio of the proliferation assay initial number of Lgr5+ cells to the proliferation assay initial number of total cells, and (v) a proliferation assay initial hair cell fraction that equals the ratio of the proliferation assay initial number of hair cells to the proliferation assay initial number of total cells; (b) the proliferation assay final cell population has (i) a proliferation assay final number of total cells, (ii) a proliferation assay final number of Lgr5+ cells, (iii) a proliferation assay final number of hair cells, (iv) a proliferation assay final Lgr5+ cell fraction that equals the ratio of the proliferation assay final number of Lgr5+ cells to the proliferation assay final number of total cells and (v) a proliferation assay final hair cell fraction that equals the ratio of the proliferation assay final number of hair cells to the proliferation assay final number of total cells; (c) the differentiation assay initial cell population has (i) a differentiation assay initial number of total cells, (ii) a differentiation assay initial number of Lgr5+ cells, (iii) a differentiation assay initial number of hair cells, (iv) a differentiation assay initial Lgr5+ cell fraction that equals the ratio of the differentiation assay initial number of Lgr5+ cells to the differentiation assay initial number of total cells, and (v) a differentiation assay initial hair cell fraction that equals the ratio of the differentiation assay initial number of hair cells to the differentiation assay initial number of total cells; (d) the differentiation assay final cell population has (i) a differentiation assay final number of total cells, (ii) a differentiation assay final number of Lgr5+ cells, (iii) a differentiation assay final number of hair cells, (iv) a differentiation assay final Lgr5+ cell fraction that equals the ratio of the differentiation assay final number of Lgr5+ cells to the differentiation assay final number of total cells, and (v) a differentiation assay final hair cell fraction that equals the ratio of the differentiation assay final number of hair cells to the differentiation assay final number of total cells; (e) the proliferation assay final number of Lgr5+ cells exceeds the proliferation assay initial number of Lgr5+ cells by a factor of at least 10; and/or (f) the differentiation assay final number of hair cells is a non-zero number.

[2] = cited from earlier work; for Human In Vivo Conc: Table 8
DOT1L = DOT1L (Homo sapiens, UniProt Q8TEK3); conditions: DOT1L inhibitors, Table 8; cited from earlier work
Sequence of DOT1L (Q8TEK3 whole entry, species assumed): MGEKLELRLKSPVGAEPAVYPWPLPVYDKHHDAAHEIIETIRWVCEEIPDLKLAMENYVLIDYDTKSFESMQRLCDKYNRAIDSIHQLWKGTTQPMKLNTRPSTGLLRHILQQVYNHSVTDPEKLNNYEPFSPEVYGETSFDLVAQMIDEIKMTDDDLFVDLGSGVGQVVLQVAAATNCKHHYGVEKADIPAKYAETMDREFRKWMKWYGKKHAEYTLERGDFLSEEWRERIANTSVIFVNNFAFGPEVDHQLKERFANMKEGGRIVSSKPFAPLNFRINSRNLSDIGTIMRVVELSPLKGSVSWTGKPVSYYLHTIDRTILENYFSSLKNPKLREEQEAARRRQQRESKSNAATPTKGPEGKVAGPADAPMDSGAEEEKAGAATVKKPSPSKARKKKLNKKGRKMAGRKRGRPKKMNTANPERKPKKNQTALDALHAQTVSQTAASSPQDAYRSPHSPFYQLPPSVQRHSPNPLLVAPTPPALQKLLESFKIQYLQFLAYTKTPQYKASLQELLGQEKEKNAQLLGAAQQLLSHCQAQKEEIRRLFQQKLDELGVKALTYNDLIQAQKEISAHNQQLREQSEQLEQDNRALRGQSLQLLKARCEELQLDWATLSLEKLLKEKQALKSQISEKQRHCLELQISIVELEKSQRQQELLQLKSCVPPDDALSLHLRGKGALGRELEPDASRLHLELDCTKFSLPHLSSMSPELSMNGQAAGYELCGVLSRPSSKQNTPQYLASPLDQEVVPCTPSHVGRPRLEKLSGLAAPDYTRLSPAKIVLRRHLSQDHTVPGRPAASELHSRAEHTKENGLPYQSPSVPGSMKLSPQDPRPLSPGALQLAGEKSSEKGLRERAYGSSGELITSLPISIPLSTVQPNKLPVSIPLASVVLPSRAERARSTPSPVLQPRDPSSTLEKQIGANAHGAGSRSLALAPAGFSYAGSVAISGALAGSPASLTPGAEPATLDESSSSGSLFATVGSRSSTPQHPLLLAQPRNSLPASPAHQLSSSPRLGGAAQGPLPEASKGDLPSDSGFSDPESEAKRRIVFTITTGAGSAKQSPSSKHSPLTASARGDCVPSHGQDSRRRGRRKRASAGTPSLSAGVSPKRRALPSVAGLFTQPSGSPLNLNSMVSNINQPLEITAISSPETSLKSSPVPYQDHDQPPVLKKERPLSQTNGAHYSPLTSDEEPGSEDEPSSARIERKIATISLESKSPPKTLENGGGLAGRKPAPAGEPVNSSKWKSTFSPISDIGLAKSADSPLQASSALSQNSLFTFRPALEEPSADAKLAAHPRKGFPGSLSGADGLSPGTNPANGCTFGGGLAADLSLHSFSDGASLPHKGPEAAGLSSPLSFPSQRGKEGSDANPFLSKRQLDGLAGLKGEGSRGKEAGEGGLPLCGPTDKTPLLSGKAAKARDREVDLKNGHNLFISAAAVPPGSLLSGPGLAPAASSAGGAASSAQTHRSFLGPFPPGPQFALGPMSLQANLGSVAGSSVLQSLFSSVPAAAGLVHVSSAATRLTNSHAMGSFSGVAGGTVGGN

GSK-3 alpha = GSK-3 alpha (Homo sapiens, UniProt P49840); conditions: Table 2; kind of potency not given; cited from earlier work
Sequence of GSK-3 alpha (P49840 whole entry): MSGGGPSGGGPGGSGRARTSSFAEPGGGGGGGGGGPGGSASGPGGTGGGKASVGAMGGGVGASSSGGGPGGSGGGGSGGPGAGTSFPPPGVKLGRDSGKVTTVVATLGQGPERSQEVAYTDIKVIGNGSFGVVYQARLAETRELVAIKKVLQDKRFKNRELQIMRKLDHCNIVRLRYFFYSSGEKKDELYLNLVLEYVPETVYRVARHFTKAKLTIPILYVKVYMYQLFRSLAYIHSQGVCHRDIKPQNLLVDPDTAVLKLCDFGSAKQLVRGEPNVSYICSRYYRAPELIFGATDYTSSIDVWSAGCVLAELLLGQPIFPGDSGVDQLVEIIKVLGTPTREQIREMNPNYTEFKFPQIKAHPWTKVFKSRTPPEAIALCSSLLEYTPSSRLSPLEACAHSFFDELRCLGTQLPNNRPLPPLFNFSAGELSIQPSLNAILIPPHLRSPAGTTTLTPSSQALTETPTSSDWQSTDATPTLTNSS

KDM1b = target: T1, KDM1b (Homo sapiens, UniProt Q8NB78); conditions: Table 9; read-out: Select KDM1b; cited from earlier work
T1 sequence (Q8NB78 1-822): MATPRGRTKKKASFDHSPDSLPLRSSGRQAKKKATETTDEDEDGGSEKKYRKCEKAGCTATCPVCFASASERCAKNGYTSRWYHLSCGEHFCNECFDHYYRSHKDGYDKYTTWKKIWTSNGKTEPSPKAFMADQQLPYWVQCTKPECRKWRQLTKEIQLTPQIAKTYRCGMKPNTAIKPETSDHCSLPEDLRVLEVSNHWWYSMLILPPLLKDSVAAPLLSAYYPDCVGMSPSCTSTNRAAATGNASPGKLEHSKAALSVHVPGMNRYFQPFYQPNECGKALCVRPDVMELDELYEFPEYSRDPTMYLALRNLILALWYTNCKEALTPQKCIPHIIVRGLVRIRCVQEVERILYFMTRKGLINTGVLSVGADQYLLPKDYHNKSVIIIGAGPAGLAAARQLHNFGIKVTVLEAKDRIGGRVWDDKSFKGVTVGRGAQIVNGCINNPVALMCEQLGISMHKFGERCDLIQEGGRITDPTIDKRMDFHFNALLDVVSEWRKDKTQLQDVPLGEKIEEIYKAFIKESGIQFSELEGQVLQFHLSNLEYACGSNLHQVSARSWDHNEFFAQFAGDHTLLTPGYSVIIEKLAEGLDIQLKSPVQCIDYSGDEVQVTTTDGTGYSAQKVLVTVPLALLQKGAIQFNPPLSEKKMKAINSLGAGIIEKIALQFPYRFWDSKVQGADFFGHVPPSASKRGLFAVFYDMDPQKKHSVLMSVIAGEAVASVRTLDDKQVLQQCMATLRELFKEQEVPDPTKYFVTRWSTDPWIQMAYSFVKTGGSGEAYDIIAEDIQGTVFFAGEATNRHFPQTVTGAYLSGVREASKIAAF

[3] = system: cochlear progenitor cells (Lgr5+); assay: Lgr5 cell expansion: quantification of cell proliferation, expansion and enrichment (flow cytometry / Celigo imaging); format: cell-based, mice; conditions: for enrichment of Lgr5+ progenitor cells / proliferation of Lgr5+ progenitor cells: TAZ activator 10 μM combined with Wnt agonist CHIR99021 (4 μM)
Experimental: Neonatal Lgr5-EGFP-IRES-Cre-ER mice (The Jackson Laboratory, strain 8875) were used to analyze the effects of small molecules on cochlear stem cell expansion (see Barker et al., Nature 449, 1003-7 (2007). This strain allowed for visualization and quantification of EGFP cells.
All animal studies were conducted under an approved institutional protocol per National Institutes of Health guidelines. Using neonatal animals, cochleae were dissected and the organ of Corti (sensory epithelium) was separated from the stria vascularis (ion transport epithelium) and the modiolus (nerve tissue). Epithelia were then collected and treated with TrypLE for 15-20 minutes to obtain single cells. The cells were then filtered ([…]) and suspended in a Matrigel (Corning) dome for 3D culture seeded at 0.5 cochlea per well.
Expansion of Lgr5 Cells: Cells were cultured in a 3D system and bathed in a serum free 1:1 mixture of DMEM and F12, supplemented with Glutamax (GIBCO), N2, B27 (Invitrogen), EGF (50 ng/mL; Chemicon), bFGF (50 ng/mL; Chemicon), IGF-1 (50 ng/mL; Chemicon), and small molecules for seven days. Media was changed every other day. Treatments were run in triplicate or quadruplicate.
Quantification of Cell Proliferation: Lgr5 cells were quantified after 7-10 days. Cell colonies were dissociated into single cells using TrypLE. The cells were then stained with propidium iodide (PI) and analyzed using a flow cytometer to count Lgr5-EGFP cells. The percentage of viable Lgr5 cells was plotted against the concentration in GraphPad Prism.
Organ of Corti are dissected from Lgr5 GFP(+) mice and dissociated as single cells as described above. Background media contains the same supplements and growth factors at the same concentrations as described above. Assays for image quantification are run in 96 well black plates with clear bottom with cells embedded in 50% Matrigel at cell density of 500 k cells/mL with 50 uL applied to each well. Cells are cultured for 7 days, with media change every 3-4 days. After 7 days of exposure to experimental conditions (e.g. small molecules), media is then removed from culture and replaced with media containing Hoescht at a 1:2000 dilution for a final concentration of 5 ug/mL (200 uL/well). The plate is then placed in a cell culture incubator at 37C for 1 hr. The media containing Hoescht is then removed and 200 uL/well of Cell Recovery Solution is added. The plate is then incubated on a plastic-wrapped (e.g. Saran wrap) CoolRack™ on ice for 80 minutes. Next, the plate is centrifuged for 5 minutes at 2300 RPMs (Beckman Coulter Allegra 6R centrifuge; GH 3.8A plate rotor; ambient temperature). Cells are then imaged on Celigo using 3 channels for brightfield, blue (Hoescht), and green (Lgr5 GFP). Proliferated cell colonies are captured as summed objects in the blue channel and the green channel. The green Lgr5 GFP(+) cell colonies are quantified for total GFP(+) cell area, while the blue hoescht stained colonies are quantified as total cell area. The % GFP(+) Cell Area is calculated using the total GFP(+) cell area divided by the total cell area multiplied by 100. All results are compiled and utilized to determine the effects of experimental conditions (e.g. small molecules) on the expansion and enrichment of the Lgr5 cell population.

TAZ = TAZ (Homo sapiens, UniProt Q9GZV5); conditions: Table 1, TAZ activators, literature cell concentration; cited from earlier work
Sequence of TAZ (Q9GZV5 whole entry): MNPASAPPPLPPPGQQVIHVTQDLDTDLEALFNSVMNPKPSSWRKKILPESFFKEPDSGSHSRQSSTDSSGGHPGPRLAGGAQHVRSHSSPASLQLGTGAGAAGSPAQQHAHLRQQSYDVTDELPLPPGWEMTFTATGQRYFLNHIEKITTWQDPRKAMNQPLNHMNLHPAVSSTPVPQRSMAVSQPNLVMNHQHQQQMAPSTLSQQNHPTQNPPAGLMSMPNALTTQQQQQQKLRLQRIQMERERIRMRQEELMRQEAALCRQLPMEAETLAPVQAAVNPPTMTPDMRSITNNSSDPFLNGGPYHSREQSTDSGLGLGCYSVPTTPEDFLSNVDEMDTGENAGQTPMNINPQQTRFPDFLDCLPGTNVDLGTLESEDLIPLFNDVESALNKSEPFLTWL

HDAC = conditions: cited from earlier work
[4] = 0-30 μM FHZ-000706 in a background of growth factors
[5] = 10 μM FHZ-000706 + 4 μM CHIR99021 in growth factors compared to CHIR alone
[6] = Table 1, TAZ activators, concentration range in the assay
[7] = TAZ activator alone, FIG. 3A, 3B
[8] = 10 μM IBS008738 combined with 4 μM CHIR99021 and 1 mM VPA in growth factors versus EFI-C or EFI-CV controls

## CC(C)N(CCCNC(=O)Nc1ccc(C(C)(C)C)cc1)C[C@H]1O[C@@H](n2cc(Br)c3c(N)ncnc32)[C@H](O)[C@@H]1O [SGC0946]
[1]; concentration range, Table 8
  Lgr5+ Assay: 0.6 to 5 µM
[2]
  Human In Vivo Conc: 0.1-5 μM uM
DOT1L
  Lit Cell: 10 mM

## CC(C)N(C[C@H]1O[C@@H](n2cnc3c(N)ncnc32)[C@H](O)[C@@H]1O)[C@H]1C[C@@H](CCc2nc3cc(C(C)(C)C)ccc3[nH]2)C1 [pinometostat]
[2]; Table 8, in brackets under the ng/mL range
  Human In Vivo Conc: Total plasma Css: (1.42-2.94 uM)
[2]
  Human In Vivo Conc: (1-10 uM)

## CC(C)N(CCCNC(=O)Nc1ccc(C(C)(C)C)cc1)C[C@H]1O[C@@H](n2ccc3c(N)ncnc32)[C@H](O)[C@@H]1O [EPZ004777]
[2]
  Human In Vivo Conc: 0.1 to 45 µM

## N[C@@H]1C[C@H]1c1ccccc1 [TCP]
[2]; Table 9, in brackets under the ng/mL range, read-out: Human Plasma Conc.: Cmax
  Cmax: 225 to 1500 nM
[2]; Table 9
  Human Plasma Conc.: Cmax: 30-200 ng/ml ng/mL

## c1ccc([C@@H]2C[C@H]2NC2CCNCC2)cc1 [GSK-LSD1]
[1]; Table 9, with <= the upper end of a range printed over two lines
  Lgr5+ Assay: ≤ 50 µM

## N#Cc1ccc2[nH]c(O)c(-c3ccc(CN4CCOCC4)cn3)c2c1 [AZD 1080]
GSK-3 alpha
  pIC50: 8.16

## O=C(O)c1ccc(CN2CCC(CN[C@@H]3C[C@H]3c3ccccc3)CC2)cc1 [GSK-2879552]
KDM1b
  pIC50: 4.70

## CS(=O)(=O)c1ccc(-c2cnc(NCc3ccco3)n3cnnc23)cc1 [EED226, reference compound]
[1]; Table 7, result in words
  Lgr5+ Assay: Active

## Cc1ccc(-n2cnc(N)c2C(=O)c2ccccc2)cc1 [FHZ-000706]
[1]; [4]
  Lgr5 GFP(+) cell area (enrichment), FIG. 3B: does not enrich
  Lgr5 GFP(+) cell area (proliferation), FIG. 3A: does not proliferate
[1]; [5]
  Lgr5 GFP(+) cell area (proliferation), FIG. 4A: enhances
  Lgr5 GFP(+) cell area percentage (enrichment), FIG. 4B: enhances
[1]; [6]
  Lgr5+ Assay: 1 to 100 µM
[3]
  enrichment of Lgr5+ progenitor cells: enriched
  proliferation of Lgr5+ progenitor cells: proliferate
[3]; [7]
  enrichment of cochlear progenitor cells: does not promote
  proliferation of cochlear progenitor cells: does not promote

## C=CCNc1nc(N)c(C(=O)c2ccc(F)s2)s1 [TT10]
TAZ
  Lit Cell: 1 µM

## O=C1NC(=O)C(c2cnc3ccccn23)=C1c1cn2c3c(cc(F)cc13)CN(C(=O)N1CCCCC1)CC2 [LY2090314, 3-(9-fluoro-2-(piperidine-1-carbonyl)-1,2,3,4-tetrahydro-[1,4]diazepino[6,7,1-hi]indol-7-yl)-4-(imidazo[1,2-a]pyridin-3-yl)-1H-pyrrole-2,5-dione]
GSK-3 alpha
  pIC50: 8.68

## CCCc1cc(C)[nH]c(=O)c1CNC(=O)c1cc(-c2ccc(N3CCN(C(C)C)CC3)nc2)cc2c1cnn2C(C)C [UN C1999, reference compound]
[1]; Table 7, result in words
  Lgr5+ Assay: Active

## O=C([O-])CCCc1ccccc1.[Na+] [Na phenylbutyrate]
HDAC; Table 5, HDAC class
  Class selectivity: Class I >
HDAC; Table 5, HDAC Inhib 1, 2, 3, 8, kind of potency not given, read-out: HDAC Potene
  pIC50: 4.80 to 5.05

## C=CCNc1nc(N)c(C(=O)c2ccc(Cl)s2)s1 [IBS008738, reference compound]
[1]; 10 μM IBS008738 + 4 μM CHIR99021 in growth factors (50 ng/mL EGF, bFGF, IGR1) versus EFI-C or EFI-CV controls
  Lgr5 GFP(+) cell count (progenitor cell proliferation), FIG. 1A: enhances
[1]; 10 μM IBS008738 + 4 μM CHIR99021 in growth factors versus EFI-C or EFI-CV controls
  Lgr5 GFP(+) cell proliferation percentage (enrichment), FIG. 1B: enhances
[1]; [8]
  Lgr5 GFP(+) cell count (progenitor cell proliferation), FIG. 2A: does not enhance
  Lgr5 GFP(+) cell proliferation percentage (enrichment), FIG. 2B: enhances
[1]; [6]
  Lgr5+ Assay: 1.1 to 30 µM
[3]
  enrichment of Lgr5+ progenitor cells: enriched
  proliferation of Lgr5+ progenitor cells: proliferate

## CCCCc1nc2cc(-c3cccnc3)c(C)nc2n1Cc1ccc(-c2ccccc2-c2nn[nH]n2)cc1 [TM-25659]
TAZ
  Lit Cell: 10 to 100 µM
